Laboratory results reported in paper PMC8536627, “Hydrolytic stability of anticancer drugs and one metabolite in the aquatic environment” (Environmental Science and Pollution Research International, 2021).
Where two headings read alike, the source gives them in different places.

How the values were obtained:
physchem = settings: for Hydrolytic stability in the preliminary test: pH 4, 7 and 9, 50 °C
Method: The incubation was performed in the dark, in order to avoid the influence of the photolysis on degradation of the analytes. The water used for the preparation of buffers was autoclaved, all glassware was clean, flushed with methanol, and dried in high temperature. Samples were closed in glass tubes with a sealed cap. The air from above the solution was removed by a nitrogen stream just before capping. In the preliminary test, solutions of single analytes were prepared in each tested pH: 4, 7, and 9, which is required by the OECD guidelines. There was also a blank sample prepared for each pH. Samples in the preliminary test were prepared in two parallel replicates. Moreover, the complete preliminary test was repeated twice. The preliminary test was performed at 50 °C for 5 days. […] In the case of the extended tests, 7 measuring points were provided during the time of the test. Each measuring point was performed in two parallel replicates. […] The test was conducted for 30 days or to 90 % elimination of a compound. Obtained results were used to determine the hydrolysis rate constant (k) using equation: 1 lnCt/C0=kt
The HPLC-UV/Vis technique was applied to determine the level of hydrolytic degradation of the analytes. In the preliminary test, the control and blank samples were analyzed at the beginning and the end of the test. […] In the extended test, the samples collected in the time intervals were analyzed, and peak areas were compared to those obtained at the beginning of the test. This was used to determine the kinetic of this hydrolysis process by using the Equation 1. In general, each analyte was analyzed by a simple HPLC method with UV/Vis detection. Gemini C18 (Phenomenex, USA), 5 μm, 110 Å, 150 mm × 4.6 mm chromatographic column was applied for each method and three different mobile phases were used (water or 0.1 % HCOOH) mixed with the acetonitrile. The conditions applied during the LC-MS analysis with an ion trap detector for the qualitative analysis of the samples collected after the extended tests at 20 and 70 °C are presented in the Table S2.

[1] = design: method as in Yadav et al. [2012]; settings: also under several stress conditions; ref Yadav et al. [2012]; cited from earlier work
[2] = HPLC water with 4 % DMSO, ref Negreira et al. ([2013a]), cited from earlier work; for Degradation level / loss: 25 °C, 24 h incubation
[3] = design: method as in Legay et al. [2014]; settings: ref Legay et al. [2014]; cited from earlier work
[4] = design: method as in Negreira et al. ([2013b]); settings: acidification of samples, organic modifier such as 50 % methanol or DMSO, previously tested conditions; ref Negreira et al. ([2013b]); cited from earlier work
[5] = design: method as in McElnay et al. ([1988]) and Vrignaud et al. ([2015]); settings: ref McElnay et al. ([1988]) and Vrignaud et al. ([2015]); cited from earlier work
[6] = design: method as in Białk-Bielińska et al. [2017]; settings: ref Białk-Bielińska et al. [2017]; cited from earlier work

For `O=c1[nH]cc(F)c(=O)[nH]1` [5-FU, 5-fluorouracil], the half-life (physchem; buffer) is given as at least 365 days, the “Hydrolytic stability in the preliminary test” value (physchem; 5 days) is given as “hydrolytically stable” and the “Temperature up to which found stable” value [1] is given as “up to 275 °C”. For the same compound, the “Stability in 24 h test” value ([2]; 4 °C, 24 h) was “stable”, the “Long-term stability at 4 °C” value ([2]; 4 °C) was “stable for 1 month” and the “Stability in 24 h test” value ([2]; 15 °C, 24 h) was “still stable”. The “Degradation level / loss” value [2] was 11% and the “Stability in aqueous solutions for medication purposes” value [3] was “stable”.
In the case of `CN(Cc1cnc2nc(N)nc(N)c2n1)c1ccc(C(=O)N[C@@H](CCC(=O)O)C(=O)O)cc1` [MTX, methotrexate], the “Stability after acidification and with organic modifier” value [4] is listed as “stable”, the half-life (physchem; aqueous buffer) is listed as at least 365 days and the “Hydrolytic stability in the preliminary test” value (physchem; 5 days) is listed as “hydrolytically stable”. For the same compound, the “Degradation level in the preliminary test” value (physchem; pH 4, 50 °C, 5 days, dark) was 0%, the “Stability in 24 h test” value ([2]; 4 °C, 24 h) was “stable” and the “Concentration decreased to” value ([2]; 4 °C, after 9 days) was “around 50%”. The Disappeared from solution ([2]; 15 °C, 24 h) was “more than 50%”, the “Degradation level / loss” value [2] was 65% and the “Time of proved stability” value [5] was “at least 24 h”. For the same compound, the “Hydrolytic stability under ecotoxicological test conditions” value [6] was “hydrolytically stable” and the “Photolytic stability under ecotoxicological test conditions” value [6] was “susceptible to photolysis”.
